The values below come from ChEMBL document CHEMBL3600286, “Initial optimization and series evolution of diaminopyrimidine inhibitors of interleukin-1 receptor associated kinase 4” (Bioorg Med Chem Lett, 2015).

Broadly, the pIC50 is the negative decadic logarithm of the IC50, by convention in mol/L. A word on the solubility: it is the dissolved amount per volume that the medium holds. A high value points to much dissolved substance. A word on the Papp: it is a coefficient for how fast a substance crosses the barrier.

Data set [1] deals with T1, Interleukin-1 receptor-associated kinase 4 (Homo sapiens, UniProt Q9NWZ3).
T1 sequence (Q9NWZ3 whole entry): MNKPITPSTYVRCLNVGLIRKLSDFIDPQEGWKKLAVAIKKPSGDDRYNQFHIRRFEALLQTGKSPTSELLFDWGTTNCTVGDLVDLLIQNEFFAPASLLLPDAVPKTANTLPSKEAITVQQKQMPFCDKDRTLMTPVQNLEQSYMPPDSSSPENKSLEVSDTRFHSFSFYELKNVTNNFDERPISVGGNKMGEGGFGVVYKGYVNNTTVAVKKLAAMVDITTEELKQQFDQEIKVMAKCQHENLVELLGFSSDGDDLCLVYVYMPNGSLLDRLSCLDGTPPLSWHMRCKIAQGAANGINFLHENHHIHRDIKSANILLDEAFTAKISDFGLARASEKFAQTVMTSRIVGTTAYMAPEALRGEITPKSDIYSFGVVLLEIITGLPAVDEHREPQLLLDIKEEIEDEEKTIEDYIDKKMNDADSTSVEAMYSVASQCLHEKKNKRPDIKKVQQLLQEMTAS
The data set can be described thus: Inhibition of human IRAK4 (unknown origin).

Data set [2] deals with Receptor-type tyrosine-protein kinase FLT3 (Homo sapiens) (UniProt P36888). The data set can be described thus: Inhibition of FLT3 (unknown origin).
Chain of Receptor-type tyrosine-protein kinase FLT3 (Homo sapiens) (P36888 whole entry): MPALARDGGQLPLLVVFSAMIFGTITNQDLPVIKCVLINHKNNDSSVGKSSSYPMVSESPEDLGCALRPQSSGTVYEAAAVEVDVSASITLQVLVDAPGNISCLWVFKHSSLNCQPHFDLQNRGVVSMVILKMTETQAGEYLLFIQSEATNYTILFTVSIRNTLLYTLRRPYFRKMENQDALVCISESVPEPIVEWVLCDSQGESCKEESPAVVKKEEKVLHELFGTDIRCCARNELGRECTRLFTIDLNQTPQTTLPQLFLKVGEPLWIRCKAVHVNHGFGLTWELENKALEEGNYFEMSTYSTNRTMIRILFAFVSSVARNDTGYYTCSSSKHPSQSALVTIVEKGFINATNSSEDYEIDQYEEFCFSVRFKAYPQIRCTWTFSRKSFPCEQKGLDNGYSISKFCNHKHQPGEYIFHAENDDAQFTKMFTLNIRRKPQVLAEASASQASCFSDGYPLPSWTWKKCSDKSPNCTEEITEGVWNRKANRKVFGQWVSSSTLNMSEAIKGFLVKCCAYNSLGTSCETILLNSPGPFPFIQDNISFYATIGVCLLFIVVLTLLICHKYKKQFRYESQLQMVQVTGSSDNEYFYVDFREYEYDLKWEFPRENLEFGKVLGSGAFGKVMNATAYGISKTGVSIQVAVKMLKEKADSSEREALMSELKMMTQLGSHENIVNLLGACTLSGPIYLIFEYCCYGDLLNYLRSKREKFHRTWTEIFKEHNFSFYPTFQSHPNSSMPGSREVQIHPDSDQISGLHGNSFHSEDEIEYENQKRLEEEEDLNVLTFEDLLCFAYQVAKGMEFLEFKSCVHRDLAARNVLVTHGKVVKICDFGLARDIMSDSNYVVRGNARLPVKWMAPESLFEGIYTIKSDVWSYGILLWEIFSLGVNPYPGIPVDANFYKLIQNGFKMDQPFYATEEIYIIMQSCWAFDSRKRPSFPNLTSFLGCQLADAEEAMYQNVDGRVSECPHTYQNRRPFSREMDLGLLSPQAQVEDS
The target of data set [3] is Misshapen-like kinase 1 (Homo sapiens) (UniProt Q8N4C8). The data set can be described thus: Inhibition of MINK1 (unknown origin).
For data set [4], the target named is BDNF/NT-3 growth factors receptor (Homo sapiens) (UniProt Q16620). The experiment in a line: Inhibition of TRKB (unknown origin).
Chain of BDNF/NT-3 growth factors receptor (Homo sapiens) (Q16620 32-822 limits assumed): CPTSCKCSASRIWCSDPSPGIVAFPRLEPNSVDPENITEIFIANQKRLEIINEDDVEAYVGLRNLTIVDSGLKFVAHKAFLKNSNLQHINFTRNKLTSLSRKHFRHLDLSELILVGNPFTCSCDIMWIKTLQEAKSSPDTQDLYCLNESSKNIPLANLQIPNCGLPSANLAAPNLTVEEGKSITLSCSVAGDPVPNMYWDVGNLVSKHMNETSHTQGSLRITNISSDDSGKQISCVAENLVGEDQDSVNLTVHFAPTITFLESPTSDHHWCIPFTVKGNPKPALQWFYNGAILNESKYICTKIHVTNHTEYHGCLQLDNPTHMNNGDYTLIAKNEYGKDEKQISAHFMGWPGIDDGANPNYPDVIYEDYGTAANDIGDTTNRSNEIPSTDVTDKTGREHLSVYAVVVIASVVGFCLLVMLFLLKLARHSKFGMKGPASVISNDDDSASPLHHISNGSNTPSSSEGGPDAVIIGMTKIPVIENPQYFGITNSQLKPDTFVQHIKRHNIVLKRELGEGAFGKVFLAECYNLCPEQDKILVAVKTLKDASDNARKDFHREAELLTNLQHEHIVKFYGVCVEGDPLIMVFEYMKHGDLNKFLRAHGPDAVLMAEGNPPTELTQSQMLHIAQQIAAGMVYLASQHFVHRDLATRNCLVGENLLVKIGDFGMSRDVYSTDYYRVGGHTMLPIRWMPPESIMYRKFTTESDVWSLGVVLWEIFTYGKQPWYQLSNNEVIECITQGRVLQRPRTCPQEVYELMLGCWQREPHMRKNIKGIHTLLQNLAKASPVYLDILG
In data set [5] the target is Leucine-rich repeat serine/threonine-protein kinase 2 (Homo sapiens) (UniProt Q5S007). The experiment in a line: Inhibition of LRRK2 (unknown origin).
For data set [6], the target named is Tyrosine-protein kinase Lck (Homo sapiens) (UniProt P06239). The data set can be described thus: Inhibition of LCK (unknown origin).
Data set [7] addresses Dual specificity protein kinase CLK2 (Homo sapiens) (UniProt P49760). The experiment in a line: Inhibition of CLK2 (unknown origin).
Data set [8] addresses T1, Interleukin-1 receptor-associated kinase 4. The experiment in a line: Inhibition of IRAK4-dependent TLR4 signaling in human THP1-XBlue cells containing NF-kappaB-inducible SEAP reporter gene assessed as inhibition of LPS-EK-induced TLR4 activation incubated at 37 degC for 1 hr by spectrophotometry. The data set is classed as cell-based, THP-1. For orientation: In a reporter assay the amount or activity of a reporter protein is the signal.

Data set [9] has as its target T2, Tumor necrosis factor receptor superfamily member 1A (Homo sapiens, UniProt P19438).
T2 sequence (P19438 whole entry): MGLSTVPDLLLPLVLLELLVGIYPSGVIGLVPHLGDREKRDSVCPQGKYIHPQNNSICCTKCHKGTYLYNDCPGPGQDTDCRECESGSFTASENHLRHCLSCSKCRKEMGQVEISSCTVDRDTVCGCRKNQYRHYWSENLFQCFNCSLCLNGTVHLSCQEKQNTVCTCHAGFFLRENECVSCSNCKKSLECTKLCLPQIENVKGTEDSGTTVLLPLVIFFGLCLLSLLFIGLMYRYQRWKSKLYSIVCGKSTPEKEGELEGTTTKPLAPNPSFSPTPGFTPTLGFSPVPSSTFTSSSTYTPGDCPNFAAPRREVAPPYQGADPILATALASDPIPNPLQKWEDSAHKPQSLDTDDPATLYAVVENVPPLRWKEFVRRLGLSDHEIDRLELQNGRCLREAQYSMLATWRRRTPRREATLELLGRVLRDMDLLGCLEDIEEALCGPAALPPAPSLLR
The data set can be described thus: Inhibition of TNFR in human THP1-XBlue cells containing NF-kappaB-inducible SEAP reporter gene assessed as inhibition of TNFalpha-induced TNFR activation incubated at 37 degC for 1 hr by spectrophotometry. The data set is classed as cell-based, THP-1.

For the next data set, the target named is Cytochrome P450 3A4 (Homo sapiens, UniProt P08684). The data set can be described thus: Inhibition of CYP3A4 (unknown origin). The data set is classed as ADME.
Chain of Cytochrome P450 3A4 (P08684 whole entry): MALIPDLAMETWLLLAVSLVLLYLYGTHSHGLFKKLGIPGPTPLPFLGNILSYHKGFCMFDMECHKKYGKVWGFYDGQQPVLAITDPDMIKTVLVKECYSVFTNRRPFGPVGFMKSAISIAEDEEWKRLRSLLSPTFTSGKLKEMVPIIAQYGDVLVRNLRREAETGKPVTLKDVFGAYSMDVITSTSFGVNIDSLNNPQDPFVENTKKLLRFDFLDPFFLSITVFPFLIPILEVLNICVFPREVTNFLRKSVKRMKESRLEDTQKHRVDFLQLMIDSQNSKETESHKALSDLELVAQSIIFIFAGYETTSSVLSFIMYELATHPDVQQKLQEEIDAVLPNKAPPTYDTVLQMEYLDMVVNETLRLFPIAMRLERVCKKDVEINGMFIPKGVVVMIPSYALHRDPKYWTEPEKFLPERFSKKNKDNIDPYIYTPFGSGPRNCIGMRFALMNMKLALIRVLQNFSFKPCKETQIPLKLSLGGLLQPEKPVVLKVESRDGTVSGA
A further data set has as its target Cytochrome P450 2D6 (Homo sapiens, UniProt P10635). The experiment in a line: Inhibition of CYP2D6 (unknown origin). The data set is classed as ADME.
The target of a further data set is Cytochrome P450 2C9 (Homo sapiens, UniProt P11712). The data set can be described thus: Inhibition of CYP2C9 (unknown origin). The data set is classed as ADME.
Chain of Cytochrome P450 2C9 (P11712 whole entry): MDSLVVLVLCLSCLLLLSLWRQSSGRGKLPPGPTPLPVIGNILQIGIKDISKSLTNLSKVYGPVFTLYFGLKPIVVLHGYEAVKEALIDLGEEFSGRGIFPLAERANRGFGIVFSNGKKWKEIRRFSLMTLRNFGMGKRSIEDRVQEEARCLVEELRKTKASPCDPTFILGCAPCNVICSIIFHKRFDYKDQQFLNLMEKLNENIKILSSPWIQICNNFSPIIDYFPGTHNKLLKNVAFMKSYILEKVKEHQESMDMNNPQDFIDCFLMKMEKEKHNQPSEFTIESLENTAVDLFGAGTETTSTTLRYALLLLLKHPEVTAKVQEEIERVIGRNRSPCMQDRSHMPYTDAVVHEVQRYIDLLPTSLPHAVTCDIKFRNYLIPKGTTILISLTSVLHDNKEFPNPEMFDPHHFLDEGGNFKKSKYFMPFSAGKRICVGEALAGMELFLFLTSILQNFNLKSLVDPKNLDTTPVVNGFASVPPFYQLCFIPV
Data set [10] in a line: Solubility in pH 7 solution. The data set is classed as physicochemical.
Data set [11] concerns the target T3, Interleukin-1 receptor-associated kinase 4 (Homo sapiens) (UniProt Q9NWZ3).
T3 sequence (whole entry): T1 sequence (Q9NWZ3 whole entry)
The experiment in a line: Potency index, ratio of IC50 for inhibition of IRAK4-dependent TLR4 signaling in human THP1-XBlue cells containing NF-kappaB-inducible SEAP reporter gene to IC50 for human IRAK4 (unknown origin). It counts as cell-based.

Data set [12] can be described thus: Apparent permeability in pig LLC-PK1 cells. It counts as ADME, cell-based, Sus scrofa.
In data set [13] the target is Proto-oncogene tyrosine-protein kinase receptor Ret (Homo sapiens) (UniProt P07949). The experiment in a line: Inhibition of RET (unknown origin).
Data set [14] concerns the target Platelet-derived growth factor receptor alpha (Homo sapiens) (UniProt P16234). The data set can be described thus: Inhibition of PDGFRA (unknown origin).

The structures appear in SMILES notation. pIC50: −log10 of the molar value. ≈ marks a conversion by molar mass, not a printed value. Calls of active or inactive are those of the source. The calls are words filed in the database; no cut-off is given here. A value given as a limit tells only on which side of the number the result lay.

Chain of Cytochrome P450 2D6 (P10635 whole entry): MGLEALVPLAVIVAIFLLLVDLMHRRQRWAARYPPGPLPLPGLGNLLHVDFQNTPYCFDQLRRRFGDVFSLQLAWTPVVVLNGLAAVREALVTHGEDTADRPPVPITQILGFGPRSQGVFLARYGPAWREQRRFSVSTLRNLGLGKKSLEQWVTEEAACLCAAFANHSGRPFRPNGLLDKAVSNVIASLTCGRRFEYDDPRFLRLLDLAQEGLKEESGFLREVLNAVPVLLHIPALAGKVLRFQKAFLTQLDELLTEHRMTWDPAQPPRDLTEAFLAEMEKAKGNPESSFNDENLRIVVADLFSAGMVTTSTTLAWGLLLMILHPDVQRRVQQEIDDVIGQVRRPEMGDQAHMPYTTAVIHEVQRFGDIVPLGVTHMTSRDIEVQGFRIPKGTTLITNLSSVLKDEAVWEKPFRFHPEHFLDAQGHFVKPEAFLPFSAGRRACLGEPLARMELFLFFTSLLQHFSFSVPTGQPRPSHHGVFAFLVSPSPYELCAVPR
Chain of Dual specificity protein kinase CLK2 (Homo sapiens) (P49760 whole entry, looked up): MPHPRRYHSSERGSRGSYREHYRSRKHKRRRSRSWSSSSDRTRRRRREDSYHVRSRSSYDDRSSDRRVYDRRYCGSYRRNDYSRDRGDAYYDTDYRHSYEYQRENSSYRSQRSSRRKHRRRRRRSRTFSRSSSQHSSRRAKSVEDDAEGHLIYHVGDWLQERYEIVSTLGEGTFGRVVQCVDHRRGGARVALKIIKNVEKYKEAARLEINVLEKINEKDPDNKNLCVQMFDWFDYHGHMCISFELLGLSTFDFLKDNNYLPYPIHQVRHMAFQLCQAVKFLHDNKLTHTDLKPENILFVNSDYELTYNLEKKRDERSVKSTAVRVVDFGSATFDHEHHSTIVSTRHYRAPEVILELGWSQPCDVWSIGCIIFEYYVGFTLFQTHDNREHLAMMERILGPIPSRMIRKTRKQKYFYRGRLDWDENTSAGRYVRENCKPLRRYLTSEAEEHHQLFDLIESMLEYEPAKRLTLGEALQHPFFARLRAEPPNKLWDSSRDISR
Chain of Platelet-derived growth factor receptor alpha (Homo sapiens) (P16234 whole entry): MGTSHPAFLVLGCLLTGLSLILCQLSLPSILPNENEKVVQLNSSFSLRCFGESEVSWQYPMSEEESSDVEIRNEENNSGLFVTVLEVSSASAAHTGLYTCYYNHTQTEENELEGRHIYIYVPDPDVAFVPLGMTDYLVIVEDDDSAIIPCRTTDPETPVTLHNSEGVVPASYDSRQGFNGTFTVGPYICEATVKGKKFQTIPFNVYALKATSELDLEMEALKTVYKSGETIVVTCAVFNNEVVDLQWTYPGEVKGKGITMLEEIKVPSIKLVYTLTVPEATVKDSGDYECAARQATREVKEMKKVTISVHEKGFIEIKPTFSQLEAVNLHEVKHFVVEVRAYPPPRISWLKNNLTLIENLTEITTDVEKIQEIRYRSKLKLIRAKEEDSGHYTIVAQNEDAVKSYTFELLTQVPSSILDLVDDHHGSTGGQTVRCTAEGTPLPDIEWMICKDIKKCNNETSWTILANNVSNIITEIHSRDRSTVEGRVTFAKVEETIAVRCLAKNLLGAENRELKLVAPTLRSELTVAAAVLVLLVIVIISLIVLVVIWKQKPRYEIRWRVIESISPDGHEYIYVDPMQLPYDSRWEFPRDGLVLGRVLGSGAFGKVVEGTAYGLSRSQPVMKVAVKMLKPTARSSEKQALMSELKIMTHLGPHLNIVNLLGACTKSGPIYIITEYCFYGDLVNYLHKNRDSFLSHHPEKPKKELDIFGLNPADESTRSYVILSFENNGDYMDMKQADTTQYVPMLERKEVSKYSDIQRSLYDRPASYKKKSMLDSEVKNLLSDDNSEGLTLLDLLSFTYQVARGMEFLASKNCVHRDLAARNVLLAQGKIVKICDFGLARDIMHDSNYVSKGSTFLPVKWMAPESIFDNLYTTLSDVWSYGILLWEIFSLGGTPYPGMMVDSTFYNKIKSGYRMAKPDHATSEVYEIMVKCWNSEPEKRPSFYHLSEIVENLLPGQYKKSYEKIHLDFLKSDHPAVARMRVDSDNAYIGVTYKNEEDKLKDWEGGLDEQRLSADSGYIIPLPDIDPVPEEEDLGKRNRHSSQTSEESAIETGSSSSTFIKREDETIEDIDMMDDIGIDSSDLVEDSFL

On to `Cc1cc(Nc2ncc(-c3ccc4ccccc4n3)c(N[C@@H]3C[C@H](CO)[C@@H](O)[C@H]3O)n2)cc(C)n1`, for which the pIC50 in data set [1] is 9.13; in [8] it was 7.26; in data set [9], below 4.51; on Cytochrome P450 3A4, below 4.30; at Cytochrome P450 2D6, below 4.30; against Cytochrome P450 2C9 it was below 4.30. The inhibition result in data set [2], in data set [3], in [4], in data set [5], in [6] and in data set [7] was “Active” each time. In data set [10], this compound gave a solubility of 72 µM (≈ 34 µg/mL). For the same compound, in data set [11], the Ratio IC50 amounted to 10. For the same compound, the Papp in data set [12] is above 15 ×10⁻⁶ cm/s.
Regarding `COc1cc(Nc2ncc(-c3ccc4ccccc4n3)c(N[C@@H]3C[C@H](CO)[C@@H](O)[C@H]3O)n2)ccn1`, the negative-log IC50 (pIC50) was 7.60 in [8]; below 4.51 in data set [9]; below 4.30 against Cytochrome P450 3A4; below 4.30 on Cytochrome P450 2D6; below 4.30 against Cytochrome P450 2C9. The compound also had a solubility in data set [10] of 22 µM (≈ 10.4 µg/mL). In [11], the Ratio IC50 is 10. For the same compound, the apparent permeability (Papp) in data set [12] is above 15 ×10⁻⁶ cm/s.
For `OC[C@H]1C[C@@H](Nc2nc(Nc3cccnc3)ncc2-c2nc3cnccc3s2)[C@H](O)[C@@H]1O`, the pIC50 in data set [1] is 7.96.
Turning to `OC[C@H]1C[C@@H](Nc2nc(Nc3ccncc3)ncc2-c2nccs2)[C@H](O)[C@@H]1O`, the negative-log IC50 (pIC50) in data set [1] was below 4.70.
With `OC[C@H]1C[C@@H](Nc2nc(Nc3ccnc(OC4CC4)c3)ncc2-c2ccc3ccccc3n2)[C@H](O)[C@@H]1O`, the negative logarithm of the IC50 (pIC50) in data set [1] was 7.36; in data set [8] it was 6.47; in data set [9] it was below 4.51; on Cytochrome P450 3A4, below 4.30; against Cytochrome P450 2D6 it was below 4.30; at Cytochrome P450 2C9, below 4.30. Further, the concentration in solution in data set [10] (solubility) was 31 µM (≈ 15.5 µg/mL). In addition, the Ratio IC50 in data set [11] came to 10. Also, in data set [12], the apparent permeability coefficient (Papp) is above 15 ×10⁻⁶ cm/s.
As to `Cc1cc(Nc2ncc(-c3nc(-c4ccccc4)cs3)c(N[C@@H]3C[C@H](CO)[C@@H](O)[C@H]3O)n2)ccn1`, the negative logarithm of the IC50 (pIC50) is 7.96 in data set [1]; 7.03 in [8]; below 4.51 in [9]; below 4.30 against Cytochrome P450 3A4; below 4.30 on Cytochrome P450 2D6; below 4.30 at Cytochrome P450 2C9. The compound also registered a solubility in [10] of 19 µM (≈ 9.32 µg/mL). Besides, the Ratio IC50 in [11] is 10. Besides, the apparent permeability (Papp) in data set [12] is above 15 ×10⁻⁶ cm/s.
With `OC[C@H]1C[C@@H](Nc2nc(Nc3cncnc3)ncc2-c2nc3cnccc3s2)[C@H](O)[C@@H]1O`, the pIC50 in data set [1] is 7.92.
With `Cc1cc(Nc2cc(N[C@@H]3C[C@H](CO)[C@@H](O)[C@H]3O)c(-c3nc4ccccc4s3)cn2)cc(C)n1`, the negative-log IC50 (pIC50) is 7.85 in data set [1]; 5.46 in [8]; below 4.51 in data set [9]; below 4.30 on Cytochrome P450 3A4; below 4.30 against Cytochrome P450 2D6; below 4.30 on Cytochrome P450 2C9. Besides, the inhibition entry in [2], in data set [7], in data set [13] and in data set [14] was “Active” each time. Besides, in [10], the solubility was below 4 µM. The Ratio IC50 in data set [11] was above 240. In addition, in data set [12], the apparent permeability (Papp) is 2 ×10⁻⁶ cm/s.
Turning to `CC(C)Oc1cc(Nc2ncc(-c3ccc4ccccc4n3)c(N[C@@H]3C[C@H](CO)[C@@H](O)[C@H]3O)n2)ccn1`, the pIC50 in [8] is 6.67; in data set [9], below 4.51; against Cytochrome P450 3A4, below 4.30; on Cytochrome P450 2D6, below 4.30; against Cytochrome P450 2C9, below 4.30. The same compound returned a solubility in data set [10] of 23 µM (≈ 11.6 µg/mL). For the same compound, the Ratio IC50 in data set [11] amounted to 10. In data set [12], the Papp was above 15 ×10⁻⁶ cm/s.
The compound `Cc1cc(Nc2ncc(-n3cccn3)c(N[C@@H]3C[C@H](CO)[C@@H](O)[C@H]3O)n2)cc(C)n1` gave a negative logarithm of the IC50 (pIC50) in data set [1] of 6.03.
Compound `COc1cc(Nc2ncc(-n3cccn3)c(N[C@@H]3C[C@H](CO)[C@@H](O)[C@H]3O)n2)ccn1` gave a pIC50 in data set [1] of 5.22.
Same read-out and setting: the value for `Cc1cc(Nc2ncc(-c3cscn3)c(N[C@@H]3C[C@H](CO)[C@@H](O)[C@H]3O)n2)cc(C)n1` was 6.07; that for `OC[C@H]1C[C@@H](Nc2nc(NC3CC3)ncc2-c2nc3cnccc3s2)[C@H](O)[C@@H]1O` was 6.19; that for `COc1cc(Nc2ncc(-c3nc(-c4ccccc4)cs3)c(N[C@@H]3C[C@H](CO)[C@@H](O)[C@H]3O)n2)ccn1` was 7.05.
On to `Cc1cc(Nc2ncc(-c3nc(-c4ccccc4)cs3)c(N[C@@H]3C[C@H](CO)[C@@H](O)[C@H]3O)n2)cc(C)n1`, for which the pIC50 in [1] was 8.40; in data set [8] it was 7.06; in data set [9] it was below 4.51; at Cytochrome P450 3A4 it was below 4.30; against Cytochrome P450 2D6, below 4.30; at Cytochrome P450 2C9, below 4.30. Also, the inhibition entry in data set [2], in data set [3], in data set [4] and in [5] was “Active” each time. The compound also yielded a solubility in [10] of 17 µM (≈ 8.58 µg/mL). For the same compound, in [11], the Ratio IC50 was found to be 10. The Papp in data set [12] is above 15 ×10⁻⁶ cm/s.
`Cc1cc(Nc2ncc(-c3cncs3)c(N[C@@H]3C[C@H](CO)[C@@H](O)[C@H]3O)n2)cc(C)n1`: in [1], the pIC50 is 5.68.
`Cc1cc(Nc2ncc(-c3nc4ccncc4s3)c(N[C@@H]3C[C@H](CO)[C@@H](O)[C@H]3O)n2)ccn1` showed a negative-log IC50 (pIC50) in data set [1] of 7.92.
On to `OC[C@H]1C[C@@H](Nc2nc(Nc3cccnc3)ncc2-c2nc3ccncc3s2)[C@H](O)[C@@H]1O`, for which the negative logarithm of the IC50 (pIC50) in data set [1] is 7.74.
